One data set concerns the target T1, PI3K (p110δ/p85α) (h) (Homo sapiens, UniProt O00329).
T1 construct: purchased Millipore UK Ltd
Briefly: PI3K (p110δ/p85α) (h) non-radioactive HTRF kinase assay. Format: biochemical. To be noted: Kinase inhibition data; performed at Millipore UK Ltd. The protocol:
The above assay procedure can be used to determine the IC50 for inhibition and/or the inhibition constant, Ki.
PI3K (p110δ/p85α) (h) [Non-Radioactive Assay]
PI3K (p110δ/p85α) (h) is incubated in assay buffer containing 10 μM phosphatidylinositol-4, 5-bisphosphate and MgATP (concentration as required). The reaction is initiated by the addition of the MgATP mix. After incubation for 30 minutes at room temperature, the reaction is stopped by the addition of stop solution containing EDTA and biotinylated phosphatidylinositol-3,4,5-trisphosphate. Finally, detection buffer is added, which contains europium-labelled anti-GST monoclonal antibody, GST-tagged GRP1 PH domain and streptavidin-allophycocyanin. The plate is then read in timeresolved fluorescence mode and the homogenous time-resolved fluorescence (HTRF) signal is determined according to the formula HTRF=10000×(Em665 nm/Em620 nm).
The kinase assays described herein were performed at Millipore UK Ltd, Dundee Technology Park, Dundee DD2 1SW, UK.
In general terms: Time-resolved FRET reads energy transfer from a long-lived donor to a nearby acceptor.

Data set [1] can be described thus: Pharmacokinetics after intravenous and oral administration in rats. To be noted: for CL/F / bioavailability: Rats; for CL/F: iv dosing, dose 1 mg/kg (0.5 for Ex. 1, 10, 11, 35; 0.48 for Ex. 24); for AUC(0-t) / half-life / Vd / bioavailability: rat, plasma; for AUC(0-t) / half-life / Vd: iv, 1 mg/kg; for Vd: read-out: Vss; for bioavailability: oral (p.o.) generally 5 or 10 mg/kg versus iv dosing. It is filed as in vivo. The protocol: The LC/MS/MS system used in the analysis consists of an Agilent 1200 Series vacuum degasser, binary pump, well-plate autosampler, thermostatted column compartment, the Agilent G6430 Triple Quadrupole Mass Spectrometer with an electrosprayionization (ESI) source. Quantitative analysis was carried out using MRM mode. The parameters for MRM transitions are in the Table A.
An Agilent XDB-C18, 2.1×30 mm, 3.5 M column was used for the analysis. 5 L of the samples were injected. Analysis condition: The mobile phase was 0.1% formic acid in water (A) and 0.1% formic acid in methanol (B). The flow rate was 0.4 mL/min. And the gradient of Mobile phase was in the Table B.
Alternatively, an Agilent 6330 series LC/MS/MS spectrometer equipped with G1312A binary pumps, a G1367A autosampler and a G1314C UV detector were used in the analysis. An ESI source was used on the LC/MS/MS spectrometer. The analysis was done in positive ion mode as appropriate and the MRM transition for each analyte was optimized using standard solution. A Capcell MP-C18 100×4.6 mm I.D., […] column (Phenomenex, Torrance, Calif., USA) was used during the analysis. The mobile phase was 5 mM ammonia acetate, 0.1% MeOH in water (A): 5 mM ammonia acetate, 0.1% MeOH in acetonitrile (B) (70:30, v/v). The flow rate was 0.6 mL/min. Column was maintained at ambient temperature. 20 μL of the samples were injected.
The compounds disclosed herein are assessed in pharmacokinetic studies in mice, rats, dogs or monkeys. The compounds are administered as a water solution, 2% HPMC+1% TWEEN®80 in water solution, 5% DMSO+5% solutol in saline, 4% MC suspension or capsule. For the intravenous administration, the animals are generally given at 1 or 2 mg/kg dose. For the oral (p.o.) dosing, mice and rats are generally given 5 or 10 mg/kg dose, and dogs and monkeys are generally given 10 mg/kg dose. The blood samples (0.3 mL) are drawn at 0.25, 0.5, 1.0, 2.0, 3.0, 4.0, 6.0, 8.0, 12 and 24 h time points or 0.083, 0.25, 0.5, 1.0, 2.0, 4.0, 6.0, 8.0 and 24 h time points and centrifuged at 3,000 or 4000 rpm for 2 to 10 min. The plasma solutions are collected, stored at −20° C. or −70° C. until analyzed by LC/MS/MS as described above.

A short description of data set [2]: Compound stability in rat liver microsomes. The settings on record: for CLint scaled at 5 μM: liver microsomes, pH 7.4, in vivo CLint extrapolated from rat liver microsome incubation; for half-life at 5 μM: rat liver microsomes 0.5 mg protein/mL, compound 5 μM, NADPH 1.0 mM, pH 7.4, 37° C., read-out: Rat T1/2. Format: in vitro ADME. The protocol:
(§1) Human or rat liver microsomes incubations were conducted in duplicate in polypropylene tubes. The typical incubation mixtures consisted of human or rat liver microsomes (0.5 mg protein/mL), compounds of interest (5 μM) and NADPH (1.0 mM) in a total volume of 200 μL potassium phosphate buffer (PBS, 100 mM, pH 7.4). Compounds were dissolved in DMSO and diluted with PBS such that the final concentration of DMSO was 0.05%. The enzymatic reactions were commenced with the addition of protein after a 3-min preincubation and incubated in a water bath open to the air at 37° C. Reactions were terminated at various time points (0, 5, 10, 15, 30, 60 min) by adding equal volume of ice-cold acetonitrile. The samples were stored at −80° C. until LC/MS/MS assays.
(§2) The concentrations of compounds in the incubation mixtures of human or rat liver microsomes were determined by a LC/MS/MS method. The ranges of the linearity in the concentration range were determined for each tested compounds.
(§3) A parallel incubation was performed using denatured microsomes as the negative control, and reactions were terminated at various time points (0, 15, 60 min) after incubation at 37° C.
(§4) Dextromethorphan (70 μM) was selected as the positive control, and reactions were terminated at various time points (0, 5, 10, 15, 30, 60 min) after incubation at 37° C. Both positive and negative control samples were included in each assay to ensure the integrity of the microsomal incubation system.
(§5) The concentrations of compounds in human or rat liver microsome incubations were plotted as a percentage of the relevant zero time point control for each reaction. The in vivo CLint were extrapolated (ref.: Naritomi, Y.; Terashita, S.; Kimura, S.; Suzuki, A.; Kagayama, A.; and Sugiyama, Y.; Prediction of human hepatic clearance from in vivo animal experiments and in vitro metabolic studies with liver microsomes from animals and humans. Drug Metab. Dispos., 2001, 29: 1316-1324).

A short description of data set [3]: Compound stability in human liver microsomes. Format: in vitro ADME. To be noted: for half-life at 5 μM: human liver microsomes 0.5 mg protein/mL, compound 5 μM, NADPH 1.0 mM, pH 7.4, 37° C., read-out: Human T1/2; for CLint scaled at 5 μM: liver microsomes, pH 7.4, in vivo CLint extrapolated from human liver microsome incubation. Here is the method: as §1, §2, §3, §4, §5

T1 sequence (O00329 whole entry): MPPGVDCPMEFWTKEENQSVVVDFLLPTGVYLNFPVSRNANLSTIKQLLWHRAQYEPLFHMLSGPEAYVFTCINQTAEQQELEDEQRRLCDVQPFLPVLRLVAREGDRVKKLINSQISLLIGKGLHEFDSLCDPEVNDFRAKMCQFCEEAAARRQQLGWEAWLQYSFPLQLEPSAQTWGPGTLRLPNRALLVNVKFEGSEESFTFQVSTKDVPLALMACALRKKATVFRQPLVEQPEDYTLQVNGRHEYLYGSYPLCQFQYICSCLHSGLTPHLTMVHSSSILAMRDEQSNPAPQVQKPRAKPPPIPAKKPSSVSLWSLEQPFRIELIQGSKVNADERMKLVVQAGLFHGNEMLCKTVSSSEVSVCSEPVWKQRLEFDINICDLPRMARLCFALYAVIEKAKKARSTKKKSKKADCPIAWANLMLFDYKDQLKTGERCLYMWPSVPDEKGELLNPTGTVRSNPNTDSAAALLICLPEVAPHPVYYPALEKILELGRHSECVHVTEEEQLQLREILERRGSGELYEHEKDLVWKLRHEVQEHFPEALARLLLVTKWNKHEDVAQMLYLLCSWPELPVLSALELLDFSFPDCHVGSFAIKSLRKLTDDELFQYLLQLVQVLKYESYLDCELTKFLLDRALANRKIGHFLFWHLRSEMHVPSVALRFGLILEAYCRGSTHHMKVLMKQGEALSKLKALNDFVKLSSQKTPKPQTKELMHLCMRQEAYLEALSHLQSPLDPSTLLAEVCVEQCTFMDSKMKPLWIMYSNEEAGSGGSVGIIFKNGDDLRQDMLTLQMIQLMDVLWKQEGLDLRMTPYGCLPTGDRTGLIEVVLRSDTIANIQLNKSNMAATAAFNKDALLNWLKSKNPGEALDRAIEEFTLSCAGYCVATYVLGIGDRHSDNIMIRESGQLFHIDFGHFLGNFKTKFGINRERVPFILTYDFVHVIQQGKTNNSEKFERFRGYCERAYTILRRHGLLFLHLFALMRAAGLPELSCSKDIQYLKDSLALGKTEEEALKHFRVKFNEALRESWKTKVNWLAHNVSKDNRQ
T1 sequence (P27986 whole entry partner): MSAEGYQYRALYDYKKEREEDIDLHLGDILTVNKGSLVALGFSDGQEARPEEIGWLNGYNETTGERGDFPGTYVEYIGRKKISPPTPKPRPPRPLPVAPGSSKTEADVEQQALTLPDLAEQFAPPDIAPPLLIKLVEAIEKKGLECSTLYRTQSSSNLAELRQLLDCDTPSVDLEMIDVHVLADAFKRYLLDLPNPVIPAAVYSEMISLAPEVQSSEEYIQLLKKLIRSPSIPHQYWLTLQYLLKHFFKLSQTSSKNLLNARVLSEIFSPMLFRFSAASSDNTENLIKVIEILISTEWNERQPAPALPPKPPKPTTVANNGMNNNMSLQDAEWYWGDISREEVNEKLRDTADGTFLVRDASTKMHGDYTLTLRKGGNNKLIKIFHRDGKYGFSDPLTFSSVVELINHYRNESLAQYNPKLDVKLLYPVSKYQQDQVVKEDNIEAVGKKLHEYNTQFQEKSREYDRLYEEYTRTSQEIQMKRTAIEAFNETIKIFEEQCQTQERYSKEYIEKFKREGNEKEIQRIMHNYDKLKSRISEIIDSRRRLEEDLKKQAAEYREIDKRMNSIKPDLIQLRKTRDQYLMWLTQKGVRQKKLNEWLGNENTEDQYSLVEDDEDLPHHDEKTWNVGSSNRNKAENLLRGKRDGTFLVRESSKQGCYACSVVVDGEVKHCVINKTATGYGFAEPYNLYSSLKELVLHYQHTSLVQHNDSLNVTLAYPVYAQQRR

As usually defined, the IC50 is the concentration that gives 50% inhibition. By CL/F is commonly meant the apparent clearance, not corrected for the fraction that reaches the circulation. For orientation: AUC(0-t) means the area under the concentration-time curve up to a stated or last time point. A low value points to less exposure. A word on the CLint scaled: it is the capacity of the preparation to metabolise the compound, expressed as a volume cleared per time. On to `Cc1nnc(-c2c(N)ncnc2N[C@@H](C)c2nc3cccc(-c4cnn(C)c4)c3c(=O)n2C2CC2)o1` [Ex. 67, (S)-2-(1-((6-amino-5-(5-methyl-1,3,4-oxadiazol-2-yl)pyrimidin-4-yl)amino)ethyl)-3-cyclopropyl-5-(1-methyl-1H-pyrazol-4-yl)quinazolin-4(3H)-one], for which the IC50 on PI3K (p110δ/p85α) (h) turned out to be 47 nM. In data set [1], the CL/F worked out at 23.2 mL/min/kg, the AUC(0-t) is 777 ng·h/mL, the half-life is 1.14 h and the Vd stood at 1.86 L/kg. The bioavailability in data set [1] was 71.7%. In data set [2], the CLint scaled at 5 μM is 10.1 mL/min/kg and the half-life at 5 μM amounted to 4.08 h. Also, in data set [3], the half-life at 5 μM turned out to be 1.58 h and the CLint scaled at 5 μM was 18.3 mL/min/kg.

As for `Cc1nnc(-c2c(N)ncnc2N[C@@H](C)c2nc3cccc(Cl)c3c(=O)n2C2CC2)o1` [Ex. 70, (S)-2-(1-((6-amino-5-(5-methyl-1,3,4-oxadiazol-2-yl)pyrimidin-4-yl)amino)ethyl)-5-chloro-3-cyclopropylquinazolin-4(3H)-one], on PI3K (p110δ/p85α) (h), the half-inhibitory concentration (IC50) amounted to 50 nM. Further, in data set [1], the CL/F came out at 44 mL/min/kg, the AUC(0-t) worked out at 399 ng·h/mL, the half-life is 0.85 h and the Vd was 3.3 L/kg. Also, in data set [1], the bioavailability came to 96.4%. For the same compound, in data set [2], the CLint scaled at 5 μM was 37.8 mL/min/kg and the half-life at 5 μM is 1.1 h. In data set [3], the half-life at 5 μM turned out to be 1.1 h and the CLint scaled at 5 μM was 26.3 mL/min/kg.

Turning to `CC[C@H](Nc1ncnc(N)c1-c1nc(C)no1)c1nc2cccc(-c3cnn(C)c3)c2c(=O)n1-c1ccccc1` [Ex. 74, (S)-2-(1-((6-amino-5-(3-methyl-1,2,4-oxadiazol-5-yl)pyrimidin-4-yl)amino)propyl)-5-(1-methyl-1H-pyrazol-4-yl)-3-phenylquinazolin-4(3H)-one], in data set [1], the CL/F worked out at 14.3 mL/min/kg, the AUC(0-t) came to 1120 ng·h/mL, the half-life was 1.56 h and the Vd was 1.83 L/kg. Moreover, the bioavailability in data set [1] came to 105%.

`C[C@H](Nc1ncnc(N)c1-c1nnn(C)n1)c1nc2cccc(-c3cnn(C)c3)c2c(=O)n1C1CC1` [Ex. 75, (S)-2-(1-((6-amino-5-(2-methyl-2H-tetrazol-5-yl)pyrimidin-4-yl)amino)ethyl)-3-cyclopropyl-5-(1-methyl-1H-pyrazol-4-yl)quinazolin-4(3H)-one]: in data set [1], the CL/F is 19.8 mL/min/kg, the AUC(0-t) was 841 ng·h/mL, the half-life is 1.41 h and the Vd came to 2.01 L/kg. Further, the bioavailability in data set [1] was 72.5%.

For `C[C@H](Nc1ncnc(N)c1-c1nnn(C)n1)c1nc2cccc(-c3cnn(C)c3)c2c(=O)n1-c1ccccc1` [Ex. 76, (S)-2-(1-((6-amino-5-(2-methyl-2H-tetrazol-5-yl)pyrimidin-4-yl)amino)ethyl)-5-(1-methyl-1H-pyrazol-4-yl)-3-phenylquinazolin-4(3H)-one], in data set [1], the CL/F came out at 6.5 mL/min/kg, the AUC(0-t) came out at 2510 ng·h/mL, the half-life was 1.45 h and the Vd worked out at 0.77 L/kg. In addition, in data set [1], the bioavailability is 105%. In data set [2], the CLint scaled at 5 μM is 8.61 mL/min/kg and the half-life at 5 μM turned out to be 4.81 h. In data set [3], the half-life at 5 μM came to 4.49 h and the CLint scaled at 5 μM was 6.46 mL/min/kg.

For the compound `Cc1nc(-c2c(N)ncnc2N[C@@H](C)c2nc3cccc(-c4cnn(C)c4)c3c(=O)n2-c2ccccc2)no1` [Ex. 77, (S)-2-(1-((6-amino-5-(5-methyl-1,2,4-oxadiazol-3-yl)pyrimidin-4-yl)amino)ethyl)-5-(1-methyl-1H-pyrazol-4-yl)-3-phenylquinazolin-4(3H)-one], in data set [1], the CL/F worked out at 5.33 mL/min/kg, the AUC(0-t) came out at 2920 ng·h/mL, the half-life was 1.76 h and the Vd came out at 0.78 L/kg. In addition, the bioavailability in data set [1] stood at 109%. Also, in data set [2], the CLint scaled at 5 μM is 21.2 mL/min/kg and the half-life at 5 μM was 1.95 h. In data set [3], the half-life at 5 μM was 1.36 h and the CLint scaled at 5 μM is 21.3 mL/min/kg.

As to `CC[C@H](Nc1ncnc(N)c1-c1nnn(C)n1)c1nc2cccc(-c3cnn(C)c3)c2c(=O)n1C1CC1` [Ex. 78, (S)-2-(1-((6-amino-5-(2-methyl-2H-tetrazol-5-yl)pyrimidin-4-yl)amino)propyl)-3-cyclopropyl-5-(1-methyl-1H-pyrazol-4-yl)quinazolin-4(3H)-one], in data set [1], the CL/F was 20.8 mL/min/kg, the AUC(0-t) worked out at 783 ng·h/mL, the half-life was 1.27 h and the Vd was 2.18 L/kg. Moreover, the bioavailability in data set [1] was determined as 67.7%. Moreover, in data set [2], the CLint scaled at 5 μM was 38.3 mL/min/kg and the half-life at 5 μM was determined as 1.08 h. For the same compound, in data set [3], the half-life at 5 μM was found to be 1 h and the intrinsic clearance (CLint scaled) at 5 μM is 28.9 mL/min/kg.

On to `CC[C@H](Nc1ncnc(N)c1-c1noc(C)n1)c1nc2cccc(-c3cnn(C)c3)c2c(=O)n1C1CC1` [Ex. 79, (S)-2-(1-((6-amino-5-(5-methyl-1,2,4-oxadiazol-3-yl)pyrimidin-4-yl)amino)propyl)-3-cyclopropyl-5-(1-methyl-1H-pyrazol-4-yl)quinazolin-4(3H)-one], for which, in data set [1], the CL/F is 32.2 mL/min/kg, the AUC(0-t) came to 511 ng·h/mL, the half-life was 1.36 h and the Vd worked out at 4.25 L/kg. Also, the bioavailability in data set [1] came to 78.7%. Further, in data set [2], the CLint scaled at 5 μM was 17.3 mL/min/kg and the half-life at 5 μM was 2.4 h. Also, in data set [3], the half-life at 5 μM came out at 0.821 h and the CLint scaled at 5 μM was 35.3 mL/min/kg.

On to `Cc1nc(-c2c(N)ncnc2N[C@@H](C)c2nc3cccc(-c4cnn(C)c4)c3c(=O)n2C2CC2)no1` [Ex. 80, (S)-2-(1-((6-amino-5-(5-methyl-1,2,4-oxadiazol-3-yl)pyrimidin-4-yl)amino)ethyl)-3-cyclopropyl-5-(1-methyl-1H-pyrazol-4-yl)quinazolin-4(3H)-one], for which the CLint scaled at 5 μM in data set [2] was 37.7 mL/min/kg; in data set [3] it was 27 mL/min/kg. The half-life at 5 μM came to 1.1 h in data set [2] and 1.07 h in data set [3].

Values taken from patent publication US9518046B2 (Calitor Sciences, LLC, priority 2015, dated 2016).
